Literature values as cited in patent US9445901B2, “Prosthesis with sustained release analgesic” (priority 2003, dated 2016).
Structures can show the parent of a compound that is named as a salt.

Conditions: man, after injection for caudal, epidural or peripheral nerve block

CCCCN1CCCCC1C(=O)Nc1c(C)cccc1C (centres unmarked) [Marcaine, bupivacaine hydrochloride]
decline of blood levels after the peak: decline to insignificant levels during the next three to six hours
time to peak levels of bupivacaine in the blood: 30 to 45 min
